From patent US20260027087A1, “DOSING REGIMENS COMPRISING A KAT6 INHIBITOR FOR THE TREATMENT OF CANCER” (PFIZER INC., priority 2022, published 2026)
Read-outs that look alike come from different tables or passages of the source.

Assays:
[1] = Phase 1 clinical trial: COMPOUND A plasma pharmacokinetics; format: in vivo, human; conditions: for CL/F (apparent clearance) / Cmax / AUC: geometric mean (CV %); for Tmax / Cmax / AUC: human, plasma; for AUC: read-out: AUC24
Description: The patients in this trial are intolerant of or resistant to standard therapy.
COMPOUND A was orally administered at 2 mg, 5 mg, 8 mg, and 15 mg QD alone or 5 mg QD in combination with 500 mg of fulvestrant.
Preliminary pharmacokinetic parameters are available from 23 participants following the 1st oral dose (Day 1 of Cycle 1) and at steady state (Day 15 of Cycle 1) and presented in Table 1.
1S COMPOUND A was orally administered at 1 mg, 2 mg, 5 mg, 8 mg, and 15 mg QD alone or 5 mg QD in combination with 500 mg of fulvestrant.
A total of 29 participants had evaluable PK concentration data in Part 1A and Part 1B, at the time of the data cut-off date of 30 Sep. 2022. Of these participants, two (2) in the 1 mg QD dose group were excluded from Cycle 1 Day 15 summaries due to either dose interruption impacting PK analysis or sample collection after the data cut-off date.
Participants were to swallow COMPOUND A whole tablets and were not to manipulate or chew the study intervention prior to swallowing. COMPOUND A was administered QD by mouth for all cohorts on a continuous basis. The once daily dose was administered in 24±3 hour intervals (i.e., no less than 21 hours and no more than 27 hours apart). All cycles were 28 days in length.

[2] = Human pharmacokinetics predicted from preclinical data; conditions: in humans, based on preclinical data
[3] = as of 23 Mar. 2022, 31 patients dosed

COc1ccccc1S(=O)(=O)Nc1noc2cc(Cn3cccn3)cc(OC)c12 [COMPOUND A, 2-Methoxy-N-{4-methoxy-6-[(1H-pyrazol-1-yl)methyl]-1,2-benzoxazol-3-yl}benzene-1-sulfonamide]
time to steady state ([1]; 1 mg to 15 mg QD, cut-off 30 Sep. 2022): achieved by Cycle 1 Day 15 | Rac (ratio of AUC24 at Cycle 1 Day 15 to AUC24 at Cycle 1 Day 1) ([1]; 5 mg QD oral in combination with fulvestrant, N=4, median (minimum, maximum)): 4.2 (3.2, 5.1) | Rac (ratio of AUC24 at Cycle 1 Day 15 to AUC24 at Cycle 1 Day 1) ([1]; 5 mg QD oral monotherapy, N=4, median (minimum, maximum)): 4.1 (2.9, 5.5) | Rac (ratio of AUC24 at Cycle 1 Day 15 to AUC24 at Cycle 1 Day 1) ([1]; 8 mg QD oral monotherapy, N=7, median (minimum, maximum)): 3.8 (3.1, 5.1) | Rac (ratio of AUC24 at Cycle 1 Day 15 to AUC24 at Cycle 1 Day 1) ([1]; 15 mg QD oral monotherapy, N=6, median (minimum, maximum)): 3.8 (2.3, 4.7) | CL/F (apparent clearance) ([1]; C1D15, 5 mg QD oral in combination with fulvestrant, N=4): 0.10 (26.9) L/hr | CL/F (apparent clearance) ([1]; C1D15, 5 mg QD oral monotherapy, N=4): 0.14 (23.9) L/hr | CL/F (apparent clearance) ([1]; C1D15, 8 mg QD oral monotherapy, N=7): 0.10 (9.7) L/hr | CL/F (apparent clearance) ([1]; C1D15, 15 mg QD oral monotherapy, N=6): 0.12 (43.2) L/hr | drug-drug interaction between COMPOUND A and fulvestrant ([1]; CL/F similar alone and in combination): no apparent drug-drug interaction | linearity of pharmacokinetics ([1]; CL/F similar at each dose level, 2 mg to 15 mg, cut-off 23 Mar. 2022): linear | linearity of PK ([1]; between 1 mg and 15 mg QD dose regimens, cut-off 30 Sep. 2022): linear | COMPOUND A exposure (AUC24) versus dose ([1]; dose range 2 mg to 15 mg, alone or in combination with fulvestrant): increased proportionally when dose was increased | Tmax ([1]; oral, following repeated daily dosing to Day 15, read-out: median Tmax): 3 h | Cmax ([1]; po, 5 mg, C1D1 (after 1st dose), 5 mg QD oral monotherapy, N=4): 508 ng/mL | AUC ([1]; po, 5 mg, C1D1, 5 mg QD oral monotherapy, N=4): 8900 ng·h/mL | Tmax ([1]; po, 5 mg, C1D1, 5 mg QD oral monotherapy, N=4, median (minimum, maximum), read-out: Tmax): 3.5 h | Cmax ([1]; po, 5 mg, C1D15 (steady state), 5 mg QD oral monotherapy, N=4): 1710 ng/mL | AUC ([1]; po, 5 mg, C1D15, 5 mg QD oral monotherapy, N=4): 35900 ng·h/mL | Tmax ([1]; po, 5 mg, C1D15, 5 mg QD oral monotherapy, N=4, median (minimum, maximum), read-out: Tmax): 3 h | Cmax ([1]; po, 8 mg, C1D1 (after 1st dose), 8 mg QD oral monotherapy, N=7): 1050 ng/mL | AUC ([1]; po, 8 mg, C1D1, 8 mg QD oral monotherapy, N=7): 20500 ng·h/mL | Tmax ([1]; po, 8 mg, C1D1, 8 mg QD oral monotherapy, N=7, median (minimum, maximum), read-out: Tmax): 3 h | Cmax ([1]; po, 8 mg, C1D15 (steady state), 8 mg QD oral monotherapy, N=7): 3620 ng/mL | AUC ([1]; po, 8 mg, C1D15, 8 mg QD oral monotherapy, N=7): 76500 ng·h/mL | Tmax ([1]; po, 8 mg, C1D15, 8 mg QD oral monotherapy, N=7, median (minimum, maximum), read-out: Tmax): 3 h | Cmax ([1]; po, 15 mg, C1D1 (after 1st dose), 15 mg QD oral monotherapy, N=6): 1940 ng/mL | AUC ([1]; po, 15 mg, C1D1, 15 mg QD oral monotherapy, N=6): 35700 ng·h/mL | Tmax ([1]; po, 15 mg, C1D1, 15 mg QD oral monotherapy, N=6, median (minimum, maximum), read-out: Tmax): 3.5 h | Cmax ([1]; po, 15 mg, C1D15 (steady state), 15 mg QD oral monotherapy, N=6): 6030 ng/mL | AUC ([1]; po, 15 mg, C1D15, 15 mg QD oral monotherapy, N=6): 127000 ng·h/mL | Tmax ([1]; po, 15 mg, C1D15, 15 mg QD oral monotherapy, N=6, median (minimum, maximum), read-out: Tmax): 3 h | Cmax ([1]; po, C1D1 (after 1st dose), 5 mg QD oral in combination with fulvestrant, N=4): 641 ng/mL | AUC ([1]; po, C1D1, 5 mg QD oral in combination with fulvestrant, N=4): 12100 ng·h/mL | Tmax ([1]; po, C1D1, 5 mg QD oral in combination with fulvestrant, N=4, median (minimum, maximum), read-out: Tmax): 6 h | Cmax ([1]; po, C1D15 (steady state), 5 mg QD oral in combination with fulvestrant, N=4): 2340 ng/mL | AUC ([1]; po, C1D15, 5 mg QD oral in combination with fulvestrant, N=4): 50100 ng·h/mL | Tmax ([1]; po, C1D15, 5 mg QD oral in combination with fulvestrant, N=4, median (minimum, maximum), read-out: Tmax): 6 h | steady-state concentrations relative to Cerf targets (defined from preclinical models) ([1]; when dosed at ≥1 mg): near or above Cerf targets | predicted Vss [2]: ~0.1 L/kg | predicted oral bioavailability [2]: high oral bioavailability | predicted plasma CL [2]: ~6 mL/h/kg | predicted t [2]: approximately 12 h | COVID-19, all-causality SAE, by patient frequency (as of 23 Mar. 2022): 2 | COVID-19, all-causality Grade 3 TEAE [3]: 3.2% | Pneumonitis, Grade 5 TEAE [3]: 3.2% | Pneumonitis, Grade 5 treatment-related AE [3]: 3.2% | Urinary tract infection, all-causality Grade 3 TEAE [3]: 3.2% | MTD (cut-off 30 Sep. 2022): not identified | Alanine aminotransferase increased, all-causality Grade 3 TEAE (human, in vivo): 6.5% | Alanine aminotransferase increased, all-causality TEAE, any grade (human, in vivo): 25.8% | Anaphylactic reaction, all-causality Grade 3 TEAE (human, in vivo): 3.2% | Anemia, Grade 3 treatment-related AE (human, in vivo): 16.1% | Anemia, TRAE, any grade (human, in vivo): 54.8% | Anemia, all-causality Grade 3 TEAE (human, in vivo): 16.1% | Anemia, all-causality TEAE, any grade (human, in vivo): 54.8% | Aspartate aminotransferase increased, all-causality TEAE, any grade (human, in vivo): 29.0% | Bone pain, all-causality SAE, by patient frequency (human, in vivo): 1 | Diarrhea, Grade 3 treatment-related AE (human, in vivo): 3.2% | Diarrhea, TRAE, any grade (human, in vivo): 29.0% | Diarrhea, all-causality Grade 3 TEAE (human, in vivo): 3.2% | Diarrhea, all-causality TEAE, any grade (human, in vivo): 35.5% | Dysgeusia, TRAE, any grade (human, in vivo): 80.6% | Dysgeusia, all-causality TEAE, any grade (human, in vivo): 83.9% | Dysphagia, all-causality SAE, by patient frequency (human, in vivo): 1 | Embolism, Grade 3 treatment-related AE (human, in vivo): 3.2% | Embolism, all-causality Grade 3 TEAE (human, in vivo): 3.2% | Embolism, all-causality SAE, by patient frequency (human, in vivo): 1 | Fatigue, all-causality Grade 3 TEAE (human, in vivo): 3.2% | Fatigue, all-causality TEAE, any grade (human, in vivo): 25.8% | Flank pain, all-causality Grade 3 TEAE (human, in vivo): 3.2% | Flank pain, all-causality SAE, by patient frequency (human, in vivo): 1 | Grade 4 treatment-related AEs (human, in vivo): no Grade 4 treatment-related AEs | Haematuria, all-causality Grade 3 TEAE (human, in vivo): 3.2% | Haematuria, all-causality SAE, by patient frequency (human, in vivo): 1 | Hypercalcaemia, Grade 4 TEAE (human, in vivo): 3.2% | Hypotension, all-causality Grade 3 TEAE (human, in vivo): 6.5% | Hypotension, all-causality SAE, by patient frequency (human, in vivo): 2 | Hypotension, treatment-related SAE, by patient frequency (human, in vivo): 1 | Lymphocyte count decreased, Grade 3 treatment-related AE (human, in vivo): 3.2% | Lymphocyte count decreased, all-causality Grade 3 TEAE (human, in vivo): 6.5% | Neutrophil count decreased/Neutropenia, Grade 3 treatment-related AE (human, in vivo): 29.1% | Neutrophil count decreased/Neutropenia, TRAE, any grade (human, in vivo): 51.6% | Neutrophil count decreased/Neutropenia, all-causality Grade 3 TEAE (human, in vivo): 29.1% | Neutrophil count decreased/Neutropenia, all-causality TEAE, any grade (human, in vivo): 51.6% | Platelet count decreased, TRAE, any grade (human, in vivo): 22.6% | Platelet count decreased, all-causality TEAE, any grade (human, in vivo): 22.6% | Pneumonitis, all-causality SAE, by patient frequency (human, in vivo): 1 | Pneumonitis, treatment-related SAE, by patient frequency (human, in vivo): 1 | Pulmonary embolism, all-causality Grade 3 TEAE (human, in vivo): 3.2% | Thrombocytopenia, Grade 3 treatment-related AE (human, in vivo): 3.2% | Thrombocytopenia, all-causality Grade 3 TEAE (human, in vivo): 3.2% | White blood cell count decreased, Grade 3 treatment-related AE (human, in vivo): 9.7% | White blood cell count decreased, TRAE, any grade (human, in vivo): 29.0% | White blood cell count decreased, all-causality Grade 3 TEAE (human, in vivo): 9.7% | White blood cell count decreased, all-causality TEAE, any grade (human, in vivo): 29.0% | all-causality SAEs, Total Number of Cases (human, in vivo): 9 | all-causality SAEs, Total Number of Subjects (human, in vivo): 8 | all-causality SAEs, Total Number of events (human, in vivo): 10 | patients with at least one TEAE (human, in vivo): 31 patients | patients with at least one treatment-related adverse event (TRAE) (human, in vivo): 31 patients | severity of TRAEs (human, in vivo): majority of TRAEs were G1-2 | treatment-related SAEs, Total Number of Cases (human, in vivo): 2 | treatment-related SAEs, Total Number of Subjects (human, in vivo): 2 | treatment-related SAEs, Total Number of events (human, in vivo): 2 | RDE (human, in vivo, 28 days): 5 mg QD | Recommended dose for expansion (RDE) (human, in vivo, 28 days): 5 mg QD | kind of DLTs (human, in vivo, 28 days): Grade 3 neutropenia
